# Measurements published in patent publication US20020155172A1, “Methods and compounds for decreasing cell toxicity or death” (priority 2000, published 2002).
# Columns and labels:
# [1] = test system: non-transfected HeLa cells; test: Total cellular protein degradation; assay type: cell-based; conditions: Congo red 100 μM, ZVAD 100 μM, MG132 10 μM; H3-tyrosine release, 0 to 180 minutes
# Experimental: FIG. 8C is a graph of the effect of effect of Congo red, ZVAD, or the proteosome inhibitor MG132 on total cellular protein degradation in non-transfected HeLa cells.
# To rule out the possibility that Congo red may have an effect on protein degradation in general, we tested the effect of Congo red on proteosome degradation. Rates of total cellular protein degradation experiments, from cells seeded in 12 well dishes at 2×10^4, treated with Congo red (100 μM), ZVAD (100 μM), or the proteosome inhibitor MG132 (10 μM) and labeled with 5 μCi/ml of H^3-tyrosine for 1 hour. One hundred microliter culture medium aliquots were collected at 0, 30, 60, 90, 120, and 180 minute time points, and the levels of H^3-tyrosine were determined using an LS6000 scintillation counter (Beckman, Co).
# [2] = test system: R62 mice and wild-type mice; test: Body weight; assay type: in vivo
# Source text: FIG. 10A is a graph showing the effect of Congo red or PBS (vehicle) on body weight in HD transgenic mice between 9 and 11 weeks of age (top graph) and between 9 and 13 weeks of age (bottom graph). Mice were infused intraperitoneally (IP) or by intracerebroventricular cannula (ICV) implanted into the predetermined coordinates on the left ventricle, or by both routes.
# In addition, the ability of Congo red to inhibit the formation as well as to disrupt preformed polyglutamine oligomers allowed us to examine the role of polyglutamine aggregates in neuronal dysfunction and degeneration characteristic of polyglutamine expansion diseases. In these studies, we used the animal model of Huntington's disease (R62), which expresses the truncated form of huntingtin with 139 CAG repeats Mangiarini et al. (supra). We took advantage of our finding that in addition to inhibiting polyglutamine oligomerization, Congo red also disrupts pre-formed oligomers, thus allowing assessment of the impact of Congo red on disease progression after formation of polyglutamine aggregates and the onset of symptoms. […]
# One of the common features of Huntington's disease is severe weight loss, proposed to be due to metabolic defects as a part of the systemic pathology of the expanded polyglutamine repeat diseases. We monitored the body weight of mice before and after treatment (FIG. 10A).
# [3] = test system: HeLa cells transfected with Q79-GFP; test: Cellular ATP levels (ATPLite) in Q79 expressing HeLa cells; assay type: cell-based
# Experimental: We also investigated whether Congo red prevented other cellular events during cell death, including ATP depletion, caspase activation, and protein synthesis inhibition. HeLa cells were transfected with the Q79-GFP construct. Forty-eight hours later, the viability of cells expressing expanded polyglutamine repeats was determined by measuring cellular ATP levels, suing an ATPLite™ kit, according to the directions provided by the manufacturer (Packard, Co.) (FIG. 5A).
# To determine the effect of Congo red (100 μM) on polyglutamine-induced cell toxicity. HeLa cells were transiently transfected with Q79-GFP, and six hours later were administered various concentrations of Congo red. Cell viability was assayed 72 hours after transfection, by measuring the level of ATP in each sample. ATP levels in cells expressing Q79 were determined by using the ATPLite™ kit as recommended by the manufacturer (Packard, Inc.). Briefly, cells were transfected with Q79 and treated 6 hours after transfection. Forty-two hours later, the levels of ATP were determined. (FIG. 5C).
# A high-throughput method for identifying compounds that decrease cell toxicity or death has been designed. In this method, cells were seeded at 2×10^5 cells in 100 mm dishes. The next day the plated cells were transiently transfected with a plasmid encoding an expanded polyglutamine repeat, for example, Q79. Three hours later, transfection efficiency was assessed. Plates containing cells having 10-20% transfection efficiency at this 3 hour time point were trypsinized and re-plated at 600 or at 1500 cells per well in 384 well plates with clear bottoms. After 6 hours, the candidate compounds were added to the multi-well plates. The cells were cultured for 48 hours and ATP levels were determined using an ATPLite™ kit. Data was then expressed in either arbitrary units, or as relative ratio of ATP levels in Q79 transfected cells in compound-treated relative to vehicle-treated samples.
# Derivatives of Congo red (commercially available from Sigma/Aldrich) were tested for their ability to alter cell toxicity and death by measuring ATP depletion and luciferase expression. The assay was carried out as described above for the high-throughput identification of compounds. Briefly, HeLa cells were transiently transfected with a Q79/GFP plasmid and were subsequently treated with various concentrations of Congo red, or 25 μM of each of Direct Orange 6, Direct Red 1, Direct Orange 1, Direct Black 51, Direct Orange 8, Direct Yellow 26, Direct Yellow 28, or Direct Blue 158. Drug treatment continued for 6 hours and then 48 hours later, ATP levels were measured in these cells and compared to the ATP levels in cells that were transiently transfected with GFP only, and also received the compound.
smiles,measurement,setting,value
"Nc1c(/N=N/c2ccc(-c3ccc(/N=N/c4cc(S(=O)(=O)O)c5ccccc5c4N)cc3)cc2)cc(S(=O)(=O)O)c2ccccc12 [Congo red, diphenyldiazo-bis-alpha-napthylaminesulfonate]",general protein degradation,[1],neither Congo red nor ZVAD had any effect
same,"body weight, wild-type mice","[2]; 9 to 13 weeks, versus vehicle treated wild-type mice",no change in body weight
same,"loss of body weight, expanded polyglutamine repeat expressing mice",[2]; ICV or IP route of delivery,significantly ameliorated
same,protection from polyglutamine repeat-induced cell death (ATP levels),"[3]; 25 or 50 μM, Q79-GFP",very effective at protecting cells
same,ATP loss,"[3]; HA-tagged Q79-GFP, caspase-8 experiment",significantly inhibited ATP loss
same,concentration at which protection from polyglutamine repeat-induced cell death begins (ATP levels),"[3]; Q79-GFP, treated six hours after transfection",12 µM
